Common to all, as to format: binding
In assay [1] the target is T1, GST-PTIP BRCT domains (residues 550-757) (Homo sapiens, UniProt Q6ZW49).
T1 construct: 15 μM GST-PTIP BRCT domains (residues 550-757); made in house; host or cells: E. coli DH5a
The assay is described as follows: Isothermal titration calorimetry of peptides with PTIP tandem BRCT domains. To be noted: for Kd: ITC, PTIP (BRCT)2 domain. The source says:
(§1) For deletion mapping of the PTIP and BRCA1 BRCT phospho-binding region and for expression of MDC 1, 53BP1 and Rad9 (FIG. 17-18), fragments were generated by PCR for in vitro transcription/translation and cloned into a pcDNA3.1 expression vector (Invitrogen, San Diego, Calif.). For production of recombinant GST-PTIP BRCT domains and GSTBRCA1 BRCT domains, residues 550-757 of PTIP and residues 1634-1863 of BRCA1 were ligated into the EcoRI and NotI sites of pGEX-4T1 (Pharmacia, Peapack, N.J.) and subsequently transformed into DH5a E. Coli. Protein induction occurred at 37° C. for 4 hours or at 25° C. for 16 hours in the presence of 0.4 mM IPTG. For peptide filter blot analysis and measurements of peptide binding affinity by ITC, GSTPTIP BRCT domains (residues 550-757) and GST-BRCA1 BRCT domains (residues 1634-1863) were isolated from bacterial lysates using glutathione agarose, eluted with 40 mM glutathione, and dialyzed into 50 mM Tris/HCl (pH 8.1), 300 mM NaCl. The GFP-PTIP constructs FL (residues 1-757), !BRCT (residues 1-550), or (BRCT)2 (residues 550-757) were cloned into the EcoRI and SalI sites of the pEGFP-C2 (BD Biosciences Clontech Franklin Lakes, N.J.) expression vector.
(§2) Peptides were synthesized by solid phase technique with three C-terminal lysines to enhance solubility. The peptides were then purified by reverse phase HPLC following deprotection and confirmed by MALDI-TOF mass spectrometry. Calorimetry measurements were performed using a VP-ITC microcalorimeter (MicroCal Inc., Studio City, Calif.). Experiments involved serial 10 μL injections of peptide solutions (20 μM-150 μM) into a sample cell containing 15 μM GST-PTIP BRCT domains (residues 550-757) or 15 μM GST-BRCA1 BRCT domains (residues 1634-1863) in 50 mM Tris/HCl (pH 8.1), 300 mM NaCl. Twenty injections were performed with 240 second intervals between injections and a reference power of 25 μCal/s. Binding isotherms were plotted and analyzed using ORIGIN Software (MicroCal Inc. Studio City, Calif.).
A general note: In ITC the heat of successive injections is recorded.

In assay [2] the target is T2, GST-BRCA1 BRCT domains (residues 1634-1863) (Homo sapiens, UniProt P38398).
T2 construct: 15 μM GST-BRCA1 BRCT domains (residues 1634-1863); made in house; host or cells: E. coli DH5a
The assay is described as follows: Isothermal titration calorimetry of peptides with BRCA1 tandem BRCT domains.
Source text: as §1, §2

Assay [3] concerns the target T3, Plk-1 PBD (residues 326-603) (Homo sapiens, UniProt P53350).
T3 construct: sample cell containing 15 μM Plk-1 PBD (residues 326-603); GST (N, cleaved yes); made in house; host or cells: E. coli BL21
The assay is described as follows: Isothermal titration calorimetry of peptides with Plk-1 PBD. To be noted: for peptide binding to Plk-1 PBD by ITC (in words): no detectable binding for a Plk1 PBD concentration of at least 150 μM. As for the experimental part:
For deletion mapping of the PBD, C-terminal fragments of Plk-1 were generated by PCR and cloned into the EcoRI and XhoI sites of pcDNA3.1 (Invitrogen). For production of recombinant PBD as a GST fusion in bacteria, the 326-603 fragment of Plk-1 was ligated into the EcoRI and XhoI sites of pGEX-4T (Pharmacia), transformed into BL21, and induced in late log-phase cells at 37° C. for 3.5 hours in the presence of 0.4 mM IPTG. For measurements of peptide binding affinity by ITC, GST-Plk-1 (326-603) was isolated from bacterial lysates using glutathione agarose, cleaved from GST using thrombin (10 U/mL), and purified by anion exchange chromatography (Q Sepharose HP, Pharmacia).
Peptides were synthesized by solid phase technique with two C-terminal lysines to enhance solubility, purified by reverse phase HPLC following deprotection, and confirmed by MALDI-TOF 9 Matrix-assisted laser desorption/ionisation-time of flight mass spectrometry. Some peptides contained an additional tyrosine residue to facilitate concentration determination by optical absorbance. calorimetry measurements were performed using a VP-ITC microcalorimeter (MicroCal Inc., Studio City, Calif.). Experiments involved 10 μL injections of peptide solutions (150 μM-180 μM) into a sample cell containing 15 μM Plk-1 PBD (residues 326-603) in 50 mM Tris/HCl (pH 8.1), 200 mM NaCl, 2 mM TCEP. Thirty injections were performed with a spacing of 240 s and a reference power of 25 μCal/s. Binding isotherms were plotted and analyzed using Origin Software (MicroCal Inc. Studio City, Calif.).
Peptides were synthesized by solid phase technique with two C-terminal lysines to enhance solubility. Some peptides contained an additional tyrosine residue to facilitate concentration determination by optical absorbance. Isothermal titration calorimetry was performed using a VP-ITC microcalorimeter (MicroCal Inc. Studio City, Calif.) by titration of 15-40 μM solutions of PBD proteins with 30×10 μl injections of […] peptide in a starting volume of 1.4-2.0 ml. Binding isotherms were plotted and analyzed using Origin Software (MicroCal Inc. Studio City, Calif.). Binding of in vitro translated Plk1 PBD (wild type and mutants) to bead-immobilized pTP and TP peptide libraries was performed as described previously (Elia et al., Science 299:1228-1231, 2003). pTP and TP indicate the peptide libraries biotin-Z-Gly-Z-Gly-Gly-Ala-X-X-B-X-pThr-Pro-X-X-X-X-Ala-Lys-Lys-Lys SEQ ID NO: 30 biotin-Z-Gly-Z-Gly-Gly-Ala-X-X-B-X-Thr-Pro-X-X-X-X-Ala-Lys-Lys-Lys SEQ ID NO: 31, respectively, where pThr is phosphothreonine, Z is aminohexanoic acid, X denotes all amino acids except Cys, and B is a biased mixture of the amino acids P, L, I, V, F, M, W.

Assay [4] deals with T4, GST-Plk-1 PBD (residues 326-603) interaction with mitotic phosphoproteins (Homo sapiens, UniProt P53350).
T4 construct: GST-Plk-1 (residues 326-603) was immobilized on glutathionine beads; made in house; host or cells: E. coli BL21
The assay can be described thus: Peptide competition of GST-Plk-1 PBD pull-down of MPM-2 mitotic phosphoproteins from HeLa lysates. The conditions noted are these: 320 μM peptide, 45 minutes at 4° C.; nocodazole-arrested HeLa lysates; listed as 7V. The method, then: HeLa cells were arrested in interphase or G2/M by treatment with aphidicolin (5 μg/mL) or nocodazole (50 ng/mL), respectively, for 16 hours. Cells were lysed in 25 mM Tris/HCl (pH 7.5) containing 125 mM NaCl, 0.5% NP-40, 5 mM EDTA, 2 mM DTT, 4 μg/mL pepstatin, 4 μg/mL aprotinin, 4 μg/mL leupeptin, 1 mM Na3VO4, 50 mM NaF, and […] microcystin, and 150 μgs of lysate incubated with 10 μL of glutathione agarose beads containing 2-5 μg of GST-Plk-1 (residues 326-603), GST-Pin1, or GST for 30 minutes at 4° C. Beads were washed four times with lysis buffer. Precipitated proteins were eluted in sample buffer and detected by blotting with monoclonal MPM-2 (Upstate Biotechnology, Inc.) or polyclonal anti-Cdc25C (Santa Cruz Biotechnology, Santa Cruz, Calif.). For peptide competition experiments, GST-Plk-1 (residues 326-603) was immobilized on glutathionine beads and preincubated with 320 μM of PoloBoxtide-optimal, −8T, or −7V for 45 minutes at 4° C. For binding experiments involving mutant cdc25C, HeLa cells were transfected with wild-type and mutated versions of HA-tagged Cdc25C in pECE using Superfect (Qiagen, Valencia, Calif.). Nocodazole (50 ng/mL) was added seventeen hours after transfection and cells incubated for an additional 14 hours to arrest them in G2/M. Point mutations of Cdc25C were constructed using the QuickChange site-directed mutagenesis system (Stratagene) and verified by DNA sequencing.

Non-standard residues stand in square brackets, D forms with d. Residues, ends and D or L forms follow the SMILES beside them. No end group written: not given here. pT = C[C@@H](OP(=O)(O)O)[C@H](N)C(=O)O; pS = N[C@@H](COP(=O)(O)O)C(=O)O

T3 sequence (P53350 326-603): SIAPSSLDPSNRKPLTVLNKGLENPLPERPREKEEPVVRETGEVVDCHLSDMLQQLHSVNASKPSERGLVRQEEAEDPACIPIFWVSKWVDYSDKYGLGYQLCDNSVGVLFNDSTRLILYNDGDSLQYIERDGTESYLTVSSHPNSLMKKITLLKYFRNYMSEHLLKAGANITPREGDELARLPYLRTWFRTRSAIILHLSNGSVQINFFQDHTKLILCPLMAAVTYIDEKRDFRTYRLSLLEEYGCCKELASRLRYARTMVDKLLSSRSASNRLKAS
T1 sequence (Q6ZW49 862-1069): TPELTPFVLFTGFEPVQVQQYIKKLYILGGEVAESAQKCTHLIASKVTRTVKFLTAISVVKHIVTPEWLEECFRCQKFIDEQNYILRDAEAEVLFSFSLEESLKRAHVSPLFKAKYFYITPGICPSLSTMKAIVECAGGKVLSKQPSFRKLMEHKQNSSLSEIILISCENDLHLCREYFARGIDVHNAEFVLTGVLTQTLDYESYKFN
T2 sequence (P38398 1634-1863): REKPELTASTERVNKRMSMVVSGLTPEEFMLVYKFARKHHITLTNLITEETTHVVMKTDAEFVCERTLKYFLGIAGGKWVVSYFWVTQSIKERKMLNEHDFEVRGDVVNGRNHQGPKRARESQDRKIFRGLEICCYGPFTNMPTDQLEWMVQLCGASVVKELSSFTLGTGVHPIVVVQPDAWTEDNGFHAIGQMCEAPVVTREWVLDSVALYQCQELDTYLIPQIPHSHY
T4 sequence (P53350 326-603): as the sequence (P53350 326-603) above

In the case of `CC[C@H](C)[C@H](NC(=O)[C@H](CC(=O)O)NC(=O)[C@H](Cc1ccc(O)cc1)NC(=O)[C@H](C)NC(=O)[C@H](C)NC(=O)CN)C(=O)N[C@@H](COP(=O)(O)O)C(=O)N[C@@H](CCC(N)=O)C(=O)N[C@H](C(=O)N[C@@H](Cc1ccccc1)C(=O)N1CCC[C@H]1C(=O)N[C@@H](Cc1ccccc1)C(=O)N[C@@H](C)C(=O)N[C@@H](CCCCN)C(=O)N[C@@H](CCCCN)C(=O)N[C@@H](CCCCN)C(=O)O)C(C)C` [BRCTtide-7pS] (H-GAAYDI[pS]QVFPFAKKK-OH; N-terminus and C-terminus assumed), the Kd in assay [1] came out at 280 nM; in assay [2] (ITC, BRCT domains of BRCA1, text, read-out: dissociation constant) it was 400 nM.
With `CC[C@H](C)[C@H](NC(=O)[C@H](CC(=O)O)NC(=O)[C@H](Cc1ccc(O)cc1)NC(=O)[C@H](C)NC(=O)[C@H](C)NC(=O)CN)C(=O)N[C@H](C(=O)N[C@@H](CCC(N)=O)C(=O)N[C@H](C(=O)N[C@@H](Cc1ccccc1)C(=O)N1CCC[C@H]1C(=O)N[C@@H](Cc1ccccc1)C(=O)N[C@@H](C)C(=O)N[C@@H](CCCCN)C(=O)N[C@@H](CCCCN)C(=O)N[C@@H](CCCCN)C(=O)O)C(C)C)[C@@H](C)OP(=O)(O)O` [BRCTtide-7pT] (H-GAAYDI[pT]QVFPFAKKK-OH; N-terminus and C-terminus assumed), the Kd in assay [1] was found to be 14300 nM.
The compound `CSCC[C@H](NC(=O)[C@@H]1CCCN1C(=O)CNC(=O)[C@H](C)NC(=O)[C@@H](N)CCSC)C(=O)N[C@@H](CCC(N)=O)C(=O)N[C@@H](CO)C(=O)N[C@H](C(=O)N1CCC[C@H]1C(=O)N[C@@H](CC(C)C)C(=O)N[C@@H](CC(N)=O)C(=O)NCC(=O)N[C@@H](C)C(=O)N[C@@H](CCCCN)C(=O)N[C@@H](CCCCN)C(=O)O)[C@@H](C)OP(=O)(O)O` [PoloBoxtide-optimal, MAGPMQ-S-pT-P-LNGAKK] (H-MAGPMQS[pT]PLNGAKK-OH) returned a Kd in assay [3] of 280 nM.
As to GAAYDISQVFPFAKKK [BRCTtide-7S], the “Kd (N.D.B.)” value in assay [1] (PTIP, N.D.B = no detectable binding by ITC, tandem BRCT domain concentration of at least 150 μM) is listed as “N.D.B”; in assay [2] (BRCA1, N.D.B = no detectable binding by ITC, tandem BRCT domain concentration of at least 150 μM) it was “N.D.B”.
Regarding “PoloBoxtide-7A: mutated version of the optimal peptide, Ala at pT-1 (SEQ ID NO:68) (MAGPMQA[pT]PLNGAYKK)”, the “peptide binding to Plk-1 PBD by ITC (in words)” value in assay [3] is reported as “abolish Plk1 PBD/peptide binding”.
On the same count and under the same terms, for “PoloBoxtide-7C: mutated version of the optimal peptide, Cys at pT-1 (SEQ ID NO:70) (MAGPMQC[pT]PLNGAYKK)” the value was “abolish Plk1 PBD/peptide binding”; for “PoloBoxtide-7G: mutated version of the optimal peptide, Gly at pT-1 (SEQ ID NO:69) (MAGPMQG[pT]PLNGAYKK)”, “abolish Plk1 PBD/peptide binding”.
Still for that read-out and setting: for “PoloBoxtide-7T: mutated version of the optimal peptide, Thr at pT-1 (SEQ ID NO:71) (MAGPMQT[pT]PLNGAYKK)” the value was “abolish Plk1 PBD/peptide binding”.
In the case of “PoloBoxtide-7V: phosphopeptide whose serine at pThr-1 was mutated to valine (SEQ ID NO:67) (MAGPMQV[pT]PLNGAKK)”, in assay [4], the “effect of peptide pre-incubation on GST-Plk-1 PBD binding of MPM-2 epitopes” value is given as “had no effect”.

The values above are taken from patent US20110104713A1, “PRODUCTS AND PROCESSES FOR MODULATING PEPTIDE-PEPTIDE BINDING DOMAIN INTERACTIONS” (priority 2002, published 2011).
